Test results from DBAASP.
Values after ≈ are worked out from the molar mass of the structure shown. Values joined by “and” are separate entries in the source; they are usually repeats but may differ in a detail not shown here. Equal values may be shown once.

Tests used:
Assay in all cases: ≥ marks a high value that may be exact or a test limit, other limits are often not marked, values filed in µg/mL are converted to µM
[1] = test system: Escherichia coli JW2778 ΔygdD
[2] = test system: Salmonella typhimurium SL1344
[3] = test system: Salmonella enterica subsp. enterica serovar Newport
[4] = test system: Salmonella enterica subsp. enterica serovar Infantis
[5] = test system: Salmonella enterica serovar Tennessee
[6] = test system: Escherichia coli JW0368 ΔsbmA
Escherichia coli JJ2489 = test system: Escherichia coli JJ2489
Escherichia coli J2210 = test system: Escherichia coli J2210
Escherichia coli MC1041 = test system: Escherichia coli MC1041
[7] = test system: Salmonella enterica subsp. enterica serovar Enteritidis MH91989
Escherichia coli = test system: Escherichia coli
Escherichia coli JW0013 = test system: Escherichia coli JW0013

With `CC[C@H](C)[C@H](NC(=O)[C@@H]1CCCN1C(=O)[C@H](CCCCN)NC(=O)[C@@H]1CCCN1C(=O)[C@@H]1CCCN1C(=O)[C@@H](NC(=O)[C@@H]1CCCN1C(=O)[C@H](CCCN=C(N)N)NC(=O)[C@@H]1CCCN1C(=O)[C@H](CCCN=C(N)N)NC(=O)[C@H](Cc1ccc(O)cc1)NC(=O)[C@H](CO)NC(=O)CNC(=O)[C@H](CCCCN)NC(=O)[C@H](CC(=O)O)NC(=O)[C@@H](N)C(C)C)[C@@H](C)O)C(=O)N[C@@H](Cc1ccc(O)cc1)C(=O)N[C@@H](CC(N)=O)C(=O)N[C@@H](CCCN=C(N)N)C(=O)N[C@@H](CC(N)=O)C(=O)O` [VDKGSYRPRPTPPKPIYNRN] the MIC [1] was 0.104 µM (≈ 0.245 µg/mL), the MIC [2] was 0.075 µM (≈ 0.177 µg/mL) and the MIC [3] was 0.037 µM (≈ 0.0872 µg/mL). For the same molecule, the MIC [4] was 0.098 µM (≈ 0.231 µg/mL), the MIC [5] was 0.075 µM (≈ 0.177 µg/mL) and the MIC [6] was 0.3 µM (≈ 0.707 µg/mL). The MIC (Escherichia coli JJ2489) was 0.078 µM (≈ 0.184 µg/mL), the MIC (Escherichia coli J2210) was 0.075 µM (≈ 0.177 µg/mL) and the MIC (Escherichia coli MC1041) was 0.075 µM (≈ 0.177 µg/mL). The MIC [7] was 0.15 µM (≈ 0.353 µg/mL), the MIC (Escherichia coli) was 0.15 µM and 0.208 µM and the MIC (Escherichia coli JW0013) was 0.037 µM (≈ 0.0872 µg/mL).
